From patent US10161008B2, “miR-193a-3p and associated genes predict tumorigenesis and chemotherapy outcomes” (Genedia Biotech Co., Ltd., priority 2011, dated 2018) come the findings set out here.

In one assay the test system is miR-193a-3p. The experiment in a line: qRT-PCR of miR-193a-3p after demethylation in QGY-7703. It is filed as cell-based, human. The settings on record: QGY-7703, treated 2 and 4 days. From the text:
A. The physical map of the miR-193 gene region for DNA methylation analysis. (FIG. 3A discloses SEQ ID NO: 23) B. The methylation state of each of 27 CpGs in the mock treated (Mock) and treated for 2 days (2D) and 4 days (4D). C. The methylation frequency in B (unit: mC/Total) is plotted. D. The methylation state of the miR-193a gene determined by methylation-specific PCR is shown. Control: the unmethylated (U) and methylated (M) control DNA, respectively. E. Relative miR-193a-3p level determined by qRT-PCR was plotted. (*P<0.05, **P<0.01).
RNA: Total RNA was isolated using TRIzol reagent (Invitrogen, USA). Complementary DNA synthesis was performed using a primeScript RT reagent kit (Tiangen Biotech Co., Ltd., Beijing, China) for the SYBR® Green-based real-time PCR analysis in Rotor-Gene™ 6000 system, Qiagen, Germany) of SRSF2, E2F1, ABCC8, and CASP2S/L. The expression of miR-193a-3p (Ribobio, Guangzhou, China) was assessed using the 2-Ct method with RNA content normalized to the U6 RNA (Ribobio, Guangzhou, China) and to β-actin for other genes and plotted. The high-throughput, quantitative nuclease protection based analysis (Bourzac K. M. et al. (2011) J Biotechnol, 154, 68-75; Pechhold S. et al. (2009) Nat Biotechnol, 27, 1038-1042) on a customized array that are designed for the simultaneous determination of the expression of 42 human miRs and 5 housekeeping genes was determined. […]

In another assay the test system is QGY-7703 cells. The experiment in a line: MTT-based IC50 determination in QGY-7703. The class given is cell-based, human. The settings on record: for IC50: Homo sapiens. Here is the method: (§1) The log phase of cell culture was obtained in Dulbecco modified Eagle medium (Invitrogen) containing 10% calf serum and 1% streptomycin-penicillin at 37° C. in 5% CO2. The thiazolyl blue tetrazolium […] cell proliferation assay was carried out as follows: 5×10^3 to 1×10^4 cells in triplicate were cultured into each well of a 96-well plate (in triplicate) for 72 h, followed by a 3-h 37° C. incubation after addition of 10 μL (5 mg/mL) MTT salt (Sigma, USA). The OD 570-nm reading was obtained; the mean and SD of the triplicate experiments were calculated and plotted (Fei Q. et al. (2008) Acta Biochim Biophys Sin (Shanghai), 40, 466-477).
(§2) The relative OD 570-nm readings (mean and SD) in each drug-treated set and the no-drug mock sample were calculated (%) and plotted against the logarithm of the drug concentration. The linear regression parameters were determined for each curve and the IC50 extrapolated (Andrisano V. et al. (2001) J Chromatogr B Biomed Sci Appl, 753, 375-383). Sources of the drugs are as follows: 5-FU, Shanghai Xudong Haipu Pharmaceutical, China; gemcitabine, Jiangsu Hansen Pharmaceutical, China; epirubicin, Shenzhen Main Luck Pharmaceutical, China; irinotecan, Aventis Pharmaceutical, Germany; paclitaxel, Bristol-Myers Squibb, USA; mitomycin, Hisun Pharmaceutical, China); docetaxel, Jiangsu Hengrui Medicine, China; vinorelbine, Yangzhou Aosaikang Pharmaceutical, China; and cisplatin, Qilu Pharmaceutical Factory, China.

The next assay relates to SMMC-7721 cells. The experiment in a line: MTT-based IC50 determination in SMMC-7721. The settings on record: Homo sapiens. It is filed as cell-based. Here is the method: as §1, §2
A further assay has as its system HepG2 cells. The experiment in a line: MTT-based IC50 determination in HepG2. It is filed as cell-based, human.
Assay [1] deals with Bcap-37 versus ZR-75-30 breast cancer cells. The experiment in a line: IC50 screen of breast cancer cell lines. The class given is cell-based, human. The settings on record: Bcap-37 vs ZR-75-30.
Protocol: The log phase of cell culture was obtained in Dulbecco modified Eagle medium (Invitrogen) containing 10% calf serum and 1% streptomycin-penicillin at 37° C. in 5% CO2. The thiazolyl blue tetrazolium blue (MTT)-based cell proliferation assay was carried out as follows: 5×10^3 to 1×10^4 cells in triplicate were cultured into each well of a 96-well plate (in triplicate) for 72 h, followed by a 3-h 37° C. incubation after addition of 10 μL (5 mg/mL) MTT salt (Sigma, USA). The OD 570-nm reading was obtained; the mean and SD of the triplicate experiments were calculated and plotted (Fei Q. et al. (2008) Acta Biochim Biophys Sin (Shanghai), 40, 466-477).
The relative OD 570-nm readings (mean and SD) in each drug-treated set and the no-drug mock sample were calculated (%) and plotted against the logarithm of the drug concentration. The linear regression parameters were determined for each curve and the IC50 extrapolated (Andrisano V. et al. (2001) J Chromatogr B Biomed Sci Appl, 753, 375-383). […]
Assay [2] concerns CASP2L and CASP2S mRNAs of caspase 2. The experiment in a line: qRT-PCR of caspase 2 splice forms in QGY-7703. It is filed as cell-based, human. Conditions: QGY-7703, low dose 4 μg/mL, one day. Here is the method: (§3) RNA: Total RNA was isolated using TRIzol reagent (Invitrogen, USA). Complementary DNA synthesis was performed using a primeScript RT reagent kit (Tiangen Biotech Co., Ltd., Beijing, China) for the SYBR® Green-based real-time PCR analysis in Rotor-Gene™ 6000 system, Qiagen, Germany) of SRSF2, E2F1, ABCC8, and CASP2S/L. The expression of miR-193a-3p (Ribobio, Guangzhou, China) was assessed using the 2-Ct method with RNA content normalized to the U6 RNA (Ribobio, Guangzhou, China) and to β-actin for other genes and plotted. The high-throughput, quantitative nuclease protection based analysis (Bourzac K. M. et al. (2011) J Biotechnol, 154, 68-75; Pechhold S. et al. (2009) Nat Biotechnol, 27, 1038-1042) on a customized array that are designed for the simultaneous determination of the expression of 42 human miRs and 5 housekeeping genes was determined. Only miR-193a-3p expression was shown.
(§4) In light of all the known so far, this ratio is very likely to be most robust indicator to 5-FU resistance of HCC. To determine the 5-FU impact in this system, this example treated both cell lines by 4 μg/mL (a low dose) and 300 μg/mL (a high dose) for one day, respectively. […] As expected, both RNA and protein of SRSF2 were elevated by a larger margin than E2F1 in both QGY-7703 and SMMC-7721 (FIGS. 8B, C and F). […]
For orientation: Real-time PCR tracks product formation cycle by cycle.

Assay [3] has the same test system. The experiment in a line: qRT-PCR of caspase 2 splice forms in SMMC-7721. It is filed as cell-based, human. The settings on record: SMMC-7721, low dose 4 μg/mL, one day. Here is the method:
as §3, §4

Assay [4] concerns SMMC-7721 tumor xenografts. The experiment in a line: SMMC-7721 tumor growth in nude mice. The class given is in vivo. The protocol: After transfection with 50 nM miR-193a-3p or mock antagomirs (Ribobio, China) for 24 h, SMMC-7721 cells were collected and subcutaneously injected into the left and right flanks (1.25×10^6 cells/point) of each nude mouse (10 total), respectively. On day 12 after cell injection, 5 mice received 5-FU (75 mg/kg mouse body weight) intraperitoneal and then twice again in 1 week. The remaining 5 mice received phosphate-buffered saline (PBS) as a mock treatment control. And at the same time, the right side of all mice tumor were intratumorally injected with miR-193a-3p antagomir and left side with mock antagomir (according to manufacture instruction, Ribobio). To monitor the tumor growth, the volume was measured with a Vernier caliper on days 12, 18, 25, and 32 and calculated as Volume=W^2×L×0.5 (W and L represent the largest and next largest tumor diameters [cm]) and then plotted. Mice were humanely sacrificed on day 32, and tumors were weighed and photographed. Immunostaining was performed for ki67, SFS2, and E2F1 expression in both tumors of mouse number 4 (mock treated) mouse number 6 (5-FU treated).

Setting [5] is: antagomir treated SMMC-7721, 5-FU 75 mg/kg intraperitoneal, day 32.
[6] abbreviates: mock-transfected SMMC-7721, 5-FU 75 mg/kg intraperitoneal, day 32.

In general, IC50 refers to the point on the concentration scale where inhibition reaches its midpoint.

≈ marks a conversion by molar mass, not a printed value. Read-outs that look alike come from different tables or passages of the source.

Protocol for HepG2 cells: The log phase of cell culture was obtained in Dulbecco modified Eagle medium (Invitrogen) containing 10% calf serum and 1% streptomycin-penicillin at 37° C. in 5% CO2. The thiazolyl blue tetrazolium blue (MTT)-based cell proliferation assay was carried out as follows: 5×10^3 to 1×10^4 cells in triplicate were cultured into each well of a 96-well plate (in triplicate) for 72 h, followed by a 3-h 37° C. incubation after addition of 10 μL (5 mg/mL) MTT salt (Sigma, USA).
The relative OD 570-nm readings (mean and SD) in each drug-treated set and the no-drug mock sample were calculated (%) and plotted against the logarithm of the drug concentration. […] Sources of the drugs are as follows: 5-FU, Shanghai Xudong Haipu Pharmaceutical, China; gemcitabine, Jiangsu Hansen Pharmaceutical, China; epirubicin, Shenzhen Main Luck Pharmaceutical, China; irinotecan, Aventis Pharmaceutical, Germany; paclitaxel, Bristol-Myers Squibb, USA; mitomycin, Hisun Pharmaceutical, China); docetaxel, Jiangsu Hengrui Medicine, China; vinorelbine, Yangzhou Aosaikang Pharmaceutical, China; and cisplatin, Qilu Pharmaceutical Factory, China.

In the case of `Nc1ncn([C@H]2C[C@H](O)[C@@H](CO)O2)c(=O)n1` [5-Aza-2′-deoxycytidine], the “steady state level of miR-193a-3p” value in the assay with miR-193a-3p is listed as “raised the steady state level of miR-193a-3p”.

`O=c1[nH]cc(F)c(=O)[nH]1` [5-FU, 5-fluorouracil]: the concentration for half-maximal inhibition (IC50) in the assay on QGY-7703 cells (QGY-7703, 72 h, MTT, read-out: IC50 to 5-FU) is 0.39 µg/mL (≈ 3 µM); in the assay on QGY-7703 cells (QGY-7703, SRSF2 siRNA-transfected QGY-7703, read-out: IC50 of 5-FU), 2.22 µg/mL (≈ 17.1 µM); with QGY-7703 cells (QGY-7703, miR-193a-3p mimic-transfected QGY-7703, read-out: 5-FU IC50) it was 5.29 µg/mL (≈ 40.7 µM); in the assay on QGY-7703 cells (QGY-7703, mock mimic-transfected QGY-7703, read-out: 5-FU IC50) it was 0.72 µg/mL (≈ 5.54 µM); in the assay with QGY-7703 cells (QGY-7703, mock siRNA-transfected QGY-7703, read-out: IC50 of 5-FU) it was 0.68 µg/mL (≈ 5.23 µM); in the assay with SMMC-7721 cells (SMMC-7721, 72 h, MTT, read-out: IC50 to 5-FU), 41 µg/mL (≈ 315 µM). The half-maximal inhibitory concentration (IC50) in the assay with SMMC-7721 cells (SMMC-7721, miR-193a-3p antagomir-transfected SMMC-7721, read-out: 5-FU IC50) was determined as 13.4 µg/mL (≈ 103 µM); with SMMC-7721 cells (SMMC-7721, mock-transfected SMMC-7721, read-out: 5-FU IC50) it was 46.7 µg/mL (≈ 359 µM); with HepG2 cells (Homo sapiens, HepG2, 72 h, MTT, read-out: IC50 to 5-FU), 1.45 µg/mL (≈ 11.1 µM). Moreover, the “IC50 of QGY-7703 lower than that of SMMC-7721” value with QGY-7703 cells (QGY-7703 vs SMMC-7721) was “approximately 105.2 fold”. Besides, the “IC50 of HepG2 lower than SMMC-7721” value in the assay on HepG2 cells (HepG2 vs SMMC-7721) was 27.3 fold. In addition, the “Bcap-37 more resistant than ZR-75-30 (relative IC50)” value in assay [1] was found to be 69.0 fold. Moreover, the “CASP2L RNA, fold of the untreated level” value in assay [2] is listed as 14.62 fold; in assay [3], 7.38 fold. The “CASP2S RNA, fold of the untreated level” value was 1.46 fold in assay [2] and 1.97 fold in assay [3]. In addition, the tumor volume in assay [4] (setting [5]) amounted to 0.29 cm^3; in assay [4] (mock-transfected SMMC-7721, 5-FU 75 mg/kg intraperitoneal, day 25) it was 0.45 cm^3; in assay [4] (setting [6]) it was 0.89 cm^3. Further, the values for the tumor weight in assay [4] (setting [5]) and in assay [4] (setting [6]) were 0.37 g and 0.82 g, respectively.
